Ten molecules from patent US20090143279A1 (priority 2007, published 2009) can be followed below.

In one test the test system is reactive oxygen species. The format is cell-based, mouse.
Another test deals with OXPHOS gene expression. The format is cell-based, mouse.
Test [1] relates to cellular dehydrogenase activity.
The test system of test [2] is mitochondrial membrane potential. The test is classed as cell-based, mouse.
Another test relates to cytochrome c. The test is classed as cell-based, mouse.
The next test relates to nuOXPHOS transcripts. The format is cell-based, mouse.
In a further test the test system is mtOXPHOS transcripts. The test is classed as cell-based, mouse.
Where [3] appears, read: normalized composite Z-score vs mock-treated (DMSO) wells, Conc 20 μM.
Setting [4] is: 20 μM, composite Z-score vs DMSO.
[5] abbreviates: composite Z-score vs DMSO, Conc 20 μM.
Setting [6] is: composite Z-score vs mock-treated (DMSO) wells, Conc 20 μM.
Where [7] appears, read: Conc 20 μM, normalized score vs mock-treated (DMSO) wells.
The mark [8] stands for this setting: composite Z-score vs DMSO wells, Conc 20 μM.
The mark [9] stands for this setting: composite Z-score vs mock-treated (DMSO) wells, concentration of each compound in μM.

Where two headings read alike, the source gives them in different places.

`CC[C@H](CC[C@@H](C)[C@H]1CC[C@H]2[C@@H]3CC=C4C[C@@H](OC(C)=O)CC[C@]4(C)[C@H]3CC[C@]12C)C(C)C` [sitosteryl acetate] gave an ROS in the test with reactive oxygen species (setting [3]) of 0.930. In the test on OXPHOS gene expression (setting [3]), this molecule displayed a GE-HTS of −0.233. In test [1] (setting [3]), this molecule displayed an MTT of −0.775. Also, in test [2] (setting [3]), the ΔΨm is −0.192. The same molecule displayed a Viability with C2C12 myotubes (setting [3]) of −0.827. Also, in the test with cytochrome c (setting [3]), the cyt c is −0.443. The molecule also yielded a nucOX in the test on nuOXPHOS transcripts (setting [3]) of −0.389. The molecule further yielded a mitoOX in the test with mtOXPHOS transcripts (setting [3]) of 0.180.
Turning to `NS(=O)(=O)c1cc(C2(O)NC(=O)c3ccccc32)ccc1Cl` (stereo not shown) [chlorthalidone], the ROS was determined as 1.047 with reactive oxygen species and 1.655 with reactive oxygen species (setting [4]). Moreover, the figures for the GE-HTS in the test with OXPHOS gene expression and with OXPHOS gene expression (setting [4]) were −0.236 and 0.793, respectively. Further, the MTT was −1.736 in test [1] and −1.134 in test [1] (setting [4]). Also, the figures for the ΔΨm in test [2] and in test [2] (setting [4]) were −0.750 and −0.257, respectively. Moreover, the Viability with C2C12 myotubes amounted to 0.081; in the test with C2C12 myotubes (setting [4]), 0.308. In addition, the results for the cyt c with cytochrome c and in the test with cytochrome c (setting [4]) were 0.531 and 0.066, respectively. Moreover, the nucOX in the test on nuOXPHOS transcripts is recorded as −0.009; in the test on nuOXPHOS transcripts (setting [4]) it was 0.646. Further, the mitoOX in the test with mtOXPHOS transcripts is −0.641; in the test with mtOXPHOS transcripts (setting [4]), 0.877.
With `COc1cc(C(C)=O)cc(OC)c1O` [acetosyringone], in the test with reactive oxygen species (setting [5]), the ROS amounted to 0.269. In the test with OXPHOS gene expression (setting [5]), this molecule had a GE-HTS of 0.029. In test [1] (setting [5]), this molecule showed an MTT of −1.266. This molecule also displayed a ΔΨm in test [2] (setting [5]) of −0.370. Moreover, the Viability with C2C12 myotubes (setting [5]) is −0.432. The molecule also yielded a cyt c in the test on cytochrome c (setting [5]) of 0.310. Further, the nucOX in the test on nuOXPHOS transcripts (setting [5]) is −0.040. The molecule further showed a mitoOX in the test on mtOXPHOS transcripts (setting [5]) of 0.201.
The molecule `O=C(O)c1cccnc1C(=O)O` [quinolinic acid] gave an ROS in the test with reactive oxygen species (setting [4]) of 0.849. This molecule returned a GE-HTS in the test on OXPHOS gene expression (setting [4]) of −0.586. In addition, in test [1] (setting [4]), the MTT is reported as −1.118. This molecule also registered a ΔΨm in test [2] (setting [4]) of −1.023. For the same molecule, the Viability with C2C12 myotubes (setting [4]) is recorded as −0.516. The molecule also gave a cyt c in the test on cytochrome c (setting [4]) of −0.222. The nucOX with nuOXPHOS transcripts (setting [4]) was −0.575. The molecule further gave a mitoOX with mtOXPHOS transcripts (setting [4]) of −0.519.
`CCN1CCN(C(=O)N[C@@H](C(=O)N[C@@H]2C(=O)N3C(C(=O)O)=C(CSc4nnnn4C)CS[C@H]23)c2ccc(O)cc2)C(=O)C1=O` [cefoperazone] yielded an ROS in the test on reactive oxygen species (setting [6]) of −0.295. The molecule further registered a GE-HTS in the test with OXPHOS gene expression (setting [6]) of 0.130. This molecule also returned an MTT in test [1] (setting [6]) of −0.793. The molecule also returned a ΔΨm in test [2] (setting [6]) of −0.908. This molecule also came in with a Viability in the test with C2C12 myotubes (setting [6]) of 0.097. For the same molecule, the cyt c with cytochrome c (setting [6]) was determined as 1.001. Also, the nucOX with nuOXPHOS transcripts (setting [6]) came to 0.013. For the same molecule, the mitoOX in the test with mtOXPHOS transcripts (setting [6]) was determined as 0.367.
In the case of `CC1=CC(=O)C2=C(C)CC[C@@H]3[C@H](OC(=O)[C@H]3C)[C@@H]12` [leucodin], the “ROS (composite Z-score)” value in the test on reactive oxygen species (setting [7]) worked out at 0.695. In the test on OXPHOS gene expression (setting [7]), the “GE-HTS (composite Z-score)” value is −0.300. In addition, the “MTT (composite Z-score)” value in test [1] (setting [7]) was −1.134. In addition, the “ΔΨm (composite Z-score)” value in test [2] (setting [7]) is −0.355. Further, the “Viability (composite Z-score)” value in the test on C2C12 myotubes (setting [7]) is −0.525. In addition, in the test on cytochrome c (setting [7]), the “cyt c (composite Z-score)” value is −0.301. Besides, in the test with nuOXPHOS transcripts (setting [7]), the “nucOX (composite Z-score)” value is −0.270. Moreover, in the test with mtOXPHOS transcripts (setting [7]), the “mitoOX (composite Z-score)” value is −0.261.
In the test with reactive oxygen species (setting [8]), `CC(=O)N[C@H]1[C@H]([C@@H](O)[C@@H](O)CO)O[C@@](O)(C(=O)O)C[C@@H]1O` [N-acetylneuramic acid] came in with an ROS of 0.063. For the same molecule, the GE-HTS in the test on OXPHOS gene expression (setting [8]) stood at 1.061. The same molecule displayed an MTT in test [1] (setting [8]) of −0.118. Besides, in test [2] (setting [8]), the ΔΨm amounted to 0.053. Also, in the test on C2C12 myotubes (setting [8]), the Viability was found to be 1.009. This molecule also gave a cyt c in the test on cytochrome c (setting [8]) of −0.254. For the same molecule, the nucOX in the test with nuOXPHOS transcripts (setting [8]) was 1.111. In the test with mtOXPHOS transcripts (setting [8]), this molecule returned a mitoOX of 0.813.
Consider `COc1ccc(-c2cc(=O)c3c(O)cc(O)cc3o2)cc1O` [diosmetin], for which the ROS in the test on reactive oxygen species (setting [3]) is on record as −0.014. In the test on OXPHOS gene expression (setting [3]), this molecule returned a GE-HTS of −0.892. In addition, in test [1] (setting [3]), the MTT is given as −1.922. Further, the ΔΨm in test [2] (setting [3]) is given as −2.701. In the test with C2C12 myotubes (setting [3]), this molecule registered a Viability of 0.174. In addition, in the test on cytochrome c (setting [3]), the cyt c was −0.666. In the test with nuOXPHOS transcripts (setting [3]), the nucOX is given as −1.158. This molecule returned a mitoOX with mtOXPHOS transcripts (setting [3]) of −0.134.
In turn, `COC(=O)c1c(C)cc(O)cc1O` [methyl orsellinate] returned an ROS with reactive oxygen species (setting [5]) of 1.212. The GE-HTS in the test with OXPHOS gene expression (setting [5]) is −1.129. The molecule further displayed an MTT in test [1] (setting [5]) of 0.148. In test [2] (setting [5]), the ΔΨm was −0.632. In the test with C2C12 myotubes (setting [5]), this molecule gave a Viability of −0.008. For the same molecule, in the test with cytochrome c (setting [5]), the cyt c is 0.573. In the test with nuOXPHOS transcripts (setting [5]), the nucOX is given as −1.000. In the test on mtOXPHOS transcripts (setting [5]), this molecule returned a mitoOX of −1.146.
As for `c1ccc2c3c([nH]c2c1)[C@H]1[C@H]2CC[C@H]([C@@H]4CCCN[C@@H]42)N1CC3` [nitrarine], the ROS with reactive oxygen species (setting [9]) is recorded as 0.458. Moreover, the GE-HTS with OXPHOS gene expression (setting [9]) is −0.352. For the same molecule, the MTT in test [1] (setting [9]) is −1.978. The molecule also gave a ΔΨm in test [2] (setting [9]) of −0.986. In addition, the Viability in the test with C2C12 myotubes (setting [9]) is −0.068. For the same molecule, in the test with cytochrome c (setting [9]), the cyt c is listed as 0.040. The molecule also gave a nucOX with nuOXPHOS transcripts (setting [9]) of −0.303. The mitoOX in the test on mtOXPHOS transcripts (setting [9]) is −0.378.
